In patent US9862746B2, “Compositions and methods relating to hindering DOT1L recruitment by MLL-fusion proteins” (The Regents of the University of Michigan, priority 2013, dated 2018):
Blank lines part the entries; values can stand above or below the molecule they belong to. Where a SMILES comes first, the peptide text is derived from it.

Key:
[1] = biological target: T1, AF9 (Homo sapiens, UniProt P42568); experiment: SPR competitive binding assay of small molecules, AF9-DOT1L; design: against AF9(497-568) and ENL (489-559) proteins running different tested concentrations over CM5 chip; GB1 (pGB1-LIC vector); made in house; host or cells: Escherichia coli BL21 (DE3)
T1 sequence (P42568 497-568): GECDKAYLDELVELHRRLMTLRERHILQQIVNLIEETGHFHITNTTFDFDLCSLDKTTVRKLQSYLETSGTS
From the text: Several secondary assays have already been developed to support hit confirmation and the hit-to-probe optimization process. The established and optimized SPR-based competitive assay utilizing DOT1L protein (826-1095) immobilized on the CM5 sensor chip was used as a secondary counter screen assay to validate binding of compounds to AF9. […] Both assays gave similar IC50 values.
(§1) To further validate the binding of the confirmed compounds and identify potential promiscuous inhibitors, several secondary assays have been developed to support hit confirmation and the hit-to-probe optimization process. In order to determine that the compounds bind effectively to the target and disrupt protein-protein interaction, a SPR competitive binding assay was used. This assay uses a platform that differs from the FP-based assay where DOT1L recombinant protein (residues […]) is immobilized on a CM5 chip, allowing for testing of the inhibitors for their ability to disrupt AF9-DOT1L protein-protein interactions.

[2] = biological target: T2, ENL (Homo sapiens, UniProt Q03111); experiment: SPR competitive binding assay of small molecules, ENL; details: SPR competitive based assay; read-out: ENL IC50 ± SD
T2 construct: against AF9(497-568) and ENL (489-559) proteins running different tested concentrations over CM5 chip; MBP (pMSCG9-LIC vector); made in house; host or cells: Escherichia coli BL21 (DE3)
T2 sequence (Q03111 489-559): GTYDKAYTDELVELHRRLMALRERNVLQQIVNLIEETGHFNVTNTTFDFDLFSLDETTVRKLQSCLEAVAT
From the text: as §1
This class of compounds was also tested for their binding against ENL protein, which is highly homologous with AF9.

[3] = biological target: T2, ENL; experiment: Solution competitive SPR assay of peptides, ENL-DOT1L interaction; assay type: binding; details: CM5 chip with immobilized DOT1L protein, read-out: IC50 ± SD ENL
Experimental: (§2) Solution competitive SPR based assay was performed to determine the IC50 values of DOT1L peptides. […] Response units (RU) were measured at 15 seconds in the dissociation phase and the specific binding was calculated by subtracting the control surface (Fcl) signal from the surfaces with immobilized Mocr-DOT1L. IC50 values were determined by non-linear least squares analysis using Graph Pad Prism 5.0 software.

[4] = biological target: T1, AF9; experiment: Optimized competitive FP binding assay (N-Flu-DOT1L / AF9); design: the recombinant GB1-AF9 protein (residues 497-568); made in house; host or cells: Escherichia coli BL21 (DE3)
[5] = biological target: T1, AF9; experiment: Solution competitive SPR assay of peptides, AF9-DOT1L interaction; assay type: binding; design: against AF9(497-568) and ENL (489-559) proteins running different tested concentrations over CM5 chip; GB1 (pGB1-LIC vector); made in house; host or cells: Escherichia coli BL21 (DE3); details: CM5 chip with immobilized DOT1L protein, read-out: IC50 ± SD AF9
Experimental: as §2

[6] = biological target: T3, AF9 (497-568) (Homo sapiens, UniProt P42568); experiment: SPR binding of AF9 to immobilized DOT1L constructs; details: DOT1L construct immobilized on CM5 sensor chip, read-out: AF9 (497-568) Kd ± SD
T3 construct: human AF9 (residues 497-568); GB1 (pGB1-LIC vector); made in house; host or cells: Escherichia coli BL21 (DE3)
T3 sequence (P42568 497-568): T1 sequence (P42568 497-568)
From the text: (§3) AF9 and ENL are two of the most common MLL fusion proteins (see, e.g., Daser A, Rabbitts T H (2004) Genes & development 18: 965-974) and belong to the YEATS protein family (see, e.g., Schulze J M, et al., (2009) Biochem Cell Biol 87: 65-75). Both of these two proteins consist of N-terminal YEATS domain and a C-terminal hydrophobic domain (see, e.g., Zhang W, et al., (2007) J Clin Invest 117: 773-783). AF9 and ENL shared high homology in the C-terminal domain and it had been shown that through this domain AF9/ENL are involved in the PPI which is crucial for MLL leukemia transformation (see, e.g., Dobson C L, et al., (1999) Embo J 18: 3564-3574; Mueller D, et al., (2007) Blood 110: 4445-4454; Yokoyama A, et al., (2010) Cancer cell 17: 198-212). The interaction of AF9 or ENL with DOT1L has been reported previously by co-immunoprecipitation and yeast 2-hybrid studies (see, e.g., Biswas D, et al., (2011) PNAS 108: 15751-15756; Yokoyama A, et al., (2010) Cancer cell 17: 198-212; Zhang W, et al., (2006) J Biol Chem 281: 18059-18068; Zhang W, et al., (2007) J Clin Invest 117: 773-783; Mueller D, et al., (2007) Blood 110: 4445-4454). However, there is a lack of detailed biochemical and biophysical characterization of this interaction. To understand the molecular basis of DOT1L interaction with MLL-fusion proteins, these PPIs were analyzed using surface plasma resonance (SPR). An SPR assay was developed to quantify the binding affinity between full length DOT1L protein and MLL-fusion proteins. For that purpose, the flag-tagged full length DOT1L protein was transiently transfected in HEK 293 cells and after 48 hours transfection the flag-tagged DOT1L protein was captured from the HEK 293 whole cell lysate on an anti-flag antibody-coated biosensor chip (FIG. 1B and FIG. 14). The recombinant C-terminal domain from human AF9 (residues 497-568) and the corresponding segment from ENL protein (residues 489-559) were cloned, expressed and purified for the biochemical binding studies (FIG. 1A). […] For the first time these studies quantitatively determined the binding affinity of DOT1L to AF9 and ENL and confirmed that DOT1L directly interacts with AF9 and ENL and has about six folds higher affinity against AF9 in comparison with ENL.
(§4) Surface Plasmon Resonance (SPR) binding studies—All SPR based experiments were performed on a BIAcore 2000 (BIAcore, GE Healthcare) instrument. Different tested DOT1L recombinant proteins were immobilized on a CM5 sensor chip by standard EDC/NHS coupling chemistry followed by ethanolamine deactivation of the surfaces. For immobilization of full length Flag-DOT1L protein, anti-Flag antibody (Sigma, Anti-FLAG M2) was immobilized on CM5 chip by the same amine coupling chemistry. HEK293 whole cells lysate with overexpressed Flag-DOT1L at 2.4 μg/l total protein concentration was injected over the Flag antibody surface, followed by injecting of AF9 and ENL in different concentrations. […] The Fcl surface was used as a control surface and was treated in the same manner as the active surfaces but in the absence of immobilized protein. Binding parameters, kon, koff and Kd were calculated by simultaneous non-linear regression using BIAEvaluation software.

[7] = biological target: T4, ENL (489-559) (Homo sapiens, UniProt Q03111); experiment: SPR binding of ENL to immobilized DOT1L constructs; details: DOT1L construct immobilized on CM5 sensor chip, read-out: ENL (489-559) Kd ± SD
T4 construct: ENL protein (residues 489-559); MBP (pMSCG9-LIC vector); made in house; host or cells: Escherichia coli BL21 (DE3)
T4 sequence (Q03111 489-559): T2 sequence (Q03111 489-559)
From the text: as §3, §4

[8] = SPR competitive, read-out: IC50, inhibition of AF9-DOT1L interaction
[9] = SPR competitive based assay, read-out: AF9 IC50 ± SD

IC50 [1, 8]: 5720 nM
Molecule: O=c1c(O)cccc2cc(O)c(O)c(O)c12 [CCG-38505]

IC50 [1, 8]: 6270 nM
Molecule: O=C(c1cc(O)c(O)c(O)c1)c1ccc(O)c(O)c1O [CCG-208095]

IC50 [2]: 33200 ± 8700 nM
IC50 [1, 9]: 46400 ± 12400 nM
Molecule: Cc1ccc(S(=O)(=O)N2c3ccccc3NC3=C(C(=O)CC(C)(C)C3)C2c2ccco2)cc1 (stereo not shown) [Compound 41]

IC50 [2]: > 200000 nM
IC50 [1, 9]: > 200000 nM
IC50 [1, 8]: > 200000 nM
Molecule: CC1(C)CC(=O)C2=C(C1)Nc1ccccc1N(S(C)(=O)=O)C2c1cccs1 (stereo not shown) [Compound 51]

IC50 [2]: 25100 ± 2500 nM
IC50 [1, 9]: 43100 ± 800 nM
Molecule: Cc1ccc(C)c(S(=O)(=O)N2c3ccccc3NC3=C(C(=O)CCC3)C2c2cccs2)c1 (stereo not shown) [Compound 52]

IC50 [3]: > 200000 nM
Molecule: CC[C@H](C)[C@H](NC(=O)[C@H](CO)NC(=O)[C@H](C)NC(=O)[C@@H]1CCCN1C(=O)[C@H](CC(C)C)NC(C)=O)C(=O)N1CCC[C@H]1C(=O)N[C@@H](CC(C)C)C(=O)N[C@@H](CO)C(=O)N[C@H](C(=O)N[C@H](C(N)=O)C(C)C)[C@@H](C)O [Compound I867A] (Ac-LPASIPLSTV-NH2)

Molecule: CC[C@H](C)[C@H](NC(=O)[C@@H]1CCCN1C(=O)[C@H](CC(C)C)NC(C)=O)C(=O)N[C@@H](CO)C(=O)N[C@@H](C)C(=O)N1CCC[C@H]1C(=O)N[C@@H](CC(C)C)C(=O)N[C@@H](CO)C(=O)N[C@H](C(=O)N[C@H](C(N)=O)C(C)C)[C@@H](C)O [Compound I869A] (Ac-LPISAPLSTV-NH2)
IC50 [3]: > 200000 nM
Ki [4]: > 100000 nM
IC50 [5]: > 200000 nM

Molecule: CC[C@H](C)[C@H](NC(=O)[C@@H]1CCCN1C(=O)[C@H](CC(C)C)NC(C)=O)C(=O)N[C@@H](CO)C(=O)N[C@H](C(=O)N1CCC[C@H]1C(=O)N[C@@H](CC(C)C)C(=O)N[C@@H](CO)C(=O)N[C@@H](C)C(=O)N[C@H](C(N)=O)C(C)C)[C@@H](C)CC [Compound T873A] (Ac-LPISIPLSAV-NH2)
Ki [4]: 203 nM

Kd [6]: 33 ± 4 nM
Kd [7]: 206 ± 80 nM
Molecule: DOT1L (1-1537): Flag-tagged full length human DOT1L protein

Kd [6]: 92 ± 8 nM
Kd [7]: 122 ± 16 nM
B1: DOT1L (826-958): recombinant truncated DOT1L construct (protein)
chain: SPQDPRPLSPGALQLAGEKSSEKGLRERAYGSSGELITSLPISIPLSTVQPNKLPVSIPLASVVLPSRAERARSTPSPVLQPRDPSSTLEKQIGANAHGAGSRSLALAPAGFSYAGSVAISGALAGSPASLTP

Kd [6]: 42 nM
Kd [7]: 90 nM
B2: DOT1L (854-925): recombinant truncated DOT1L construct, 72 amino acids (protein)
chain: AYGSSGELITSLPISIPLSTVQPNKLPVSIPLASVVLPSRAERARSTPSPVLQPRDPSSTLEKQIGANAHGA

Kd [6]: 135 ± 4 nM
Kd [7]: 148 ± 14 nM
B3: DOT1L (854-1095): recombinant truncated DOT1L construct (protein)
chain: AYGSSGELITSLPISIPLSTVQPNKLPVSIPLASVVLPSRAERARSTPSPVLQPRDPSSTLEKQIGANAHGAGSRSLALAPAGFSYAGSVAISGALAGSPASLTPGAEPATLDESSSSGSLFATVGSRSSTPQHPLLLAQPRNSLPASPAHQLSSSPRLGGAAQGPLPEASKGDLPSDSGFSDPESEAKRRIVFTITTGAGSAKQSPSSKHSPLTASARGDCVPSHGQDSRRRGRRKRASAG

Kd [6]: 111 nM
Kd [7]: 238 nM
B4: DOT1L (826-1095): recombinant DOT1L construct (protein)
chain: SPQDPRPLSPGALQLAGEKSSEKGLRERAYGSSGELITSLPISIPLSTVQPNKLPVSIPLASVVLPSRAERARSTPSPVLQPRDPSSTLEKQIGANAHGAGSRSLALAPAGFSYAGSVAISGALAGSPASLTPGAEPATLDESSSSGSLFATVGSRSSTPQHPLLLAQPRNSLPASPAHQLSSSPRLGGAAQGPLPEASKGDLPSDSGFSDPESEAKRRIVFTITTGAGSAKQSPSSKHSPLTASARGDCVPSHGQDSRRRGRRKRASAG

Kd [6]: 78 ± 15 nM
Kd [7]: 81 ± 6 nM
B5: DOT1L (826-937): recombinant truncated DOT1L construct (protein)
chain: SPQDPRPLSPGALQLAGEKSSEKGLRERAYGSSGELITSLPISIPLSTVQPNKLPVSIPLASVVLPSRAERARSTPSPVLQPRDPSSTLEKQIGANAHGAGSRSLALAPAGF

Kd [6]: 1820 nM
Kd [7]: 6220 nM
B6: DOT1L (925-1095): recombinant truncated DOT1L construct (protein)
chain: AGSRSLALAPAGFSYAGSVAISGALAGSPASLTPGAEPATLDESSSSGSLFATVGSRSSTPQHPLLLAQPRNSLPASPAHQLSSSPRLGGAAQGPLPEASKGDLPSDSGFSDPESEAKRRIVFTITTGAGSAKQSPSSKHSPLTASARGDCVPSHGQDSRRRGRRKRASAG
